Experiments:
[1] = test system: HEI-OC1 cells; assay: TACS MTT cell proliferation / metabolic activity assay in HEI-OC1; format: cell-based, mouse; conditions: for Proliferative effect and metabolic activity at low concentrations: 0.1 μM to 5 μM, 24 h incubation, also stated for Neuro-2A and HT-1080; for Proliferative effect vs Qx-70 and untreated cells: HEI-OC1, TACS MTT; for Metabolic and proliferative activities at high concentrations: concentrations higher than 5 μM, across all three lines
Description: (§1) HEI-OC1 cells derived from the mouse OC (kindly provided by Dr. F. Kalinec) were cultured under permissive conditions (33 °C, 10% CO2) as described in [22]. Additionally, we assessed the activity of Qx-derived compounds in the mouse neuroblastoma cell line, Neuro-2A, and the human fibrosarcoma HT-1080 (ATCC, Manassas, VA, USA) following the standard cell culture guidelines provided by the vendor.
(§2) In vitro cell proliferation effects of all ten initial compounds (Figure 1A,B) were tested on HEI-OC1, Neuro-2A and HT-1080 cells by TACS® 3-(4,5-dimethylthiazol-2-yl)-2,5-diphenyltetrazolium bromide (MTT) Cell Proliferation Assay (R&D Systems, Minneapolis, MN, USA, 4890-025-K), following the manufacturer’s protocol. Absorbance was measured with SpectraMax® M Series Multi-Mode Microplate Reader with Soft Max Pro 7.2 GxP Software (Molecular Devices, Sunnyvale, CA, USA), and the average OD in control cells was taken as 100% of viability. Upon selecting the most viable compounds (Qx-294 and Qx-301), we proceeded with in vivo experiments. For zebrafish treatment, animals were incubated for varied times with different concentrations (50, 100, 150, 200, 250, and 300 μg/mL) of Qx-294 or Qx-301 diluted in swimming (E3) media or administered via IP injections. Mice treatment followed the same procedures as described in [18]. Following treatment, animals or tissue samples were incubated in Click-it EdU or Click-it Plus TUNEL kits (Thermo Scientific, Waltham, MA, USA), following the manufacturer’s instructions to label proliferating and apoptotic cells, respectively.

[2] = test system: Neuro-2A; assay: TACS MTT cell proliferation / metabolic activity assay in Neuro-2A; format: cell-based, mouse; conditions: for Increase in MTT absorbance compared to DMSO controls and untreated cells: low-dose exposure (≤5 μM); for MTT absorbance change at higher concentrations: ≥5 μM
Description: as §1, §2

[3] = test system: HT-1080; assay: TACS MTT cell proliferation / metabolic activity assay in HT-1080; format: cell-based, human; conditions: for Increase in MTT absorbance compared to DMSO controls and untreated cells: HT-1080, low-dose exposure (≤5 μM); for MTT absorbance change at higher concentrations: HT-1080, ≥5 μM
Description: as §1, §2

[4] = test system: zebrafish neuromast cells; assay: TUNEL assay in zebrafish neuromasts; format: in vivo, zebrafish (Danio rerio); conditions: 400 μM, 6 h
Description: Absorbance was measured with SpectraMax® M Series Multi-Mode Microplate Reader with Soft Max Pro 7.2 GxP Software (Molecular Devices, Sunnyvale, CA, USA), and the average OD in control cells was taken as 100% of viability. […] Mice treatment followed the same procedures as described in [18]. Following treatment, animals or tissue samples were incubated in Click-it EdU or Click-it Plus TUNEL kits (Thermo Scientific, Waltham, MA, USA), following the manufacturer’s instructions to label proliferating and apoptotic cells, respectively.

Row | Structure (SMILES) | Proliferative effect and metabolic activity at low concentrations [1] | Proliferative effect vs Qx-70 and untreated cells [1] | Metabolic and proliferative activities at high concentrations [1] | Increase in MTT absorbance compared to DMSO controls and untreated cells [2] | MTT absorbance change at higher concentrations [2] | Increase in MTT absorbance compared to DMSO controls and untreated cells [3] | MTT absorbance change at higher concentrations [3] | Cell death (TUNEL) in neuromasts, positive control [4]
1 | CCNc1cnc2ccccc2n1 [Qx-292, 2-(ethylamine)-quinoxaline] | high proliferative effect and increased metabolic activity | significant and reproducible proliferative effects greater than those of Qx-70 and the untreated cells | declined | ≤ 9% | moderate reductions | ≤ 9% | moderate reductions | –
2 | c1ccc2nc(N3CCSCC3)cnc2c1 [Qx-295, 2-(thiomorpholine)-quinoxaline] | high proliferative effect and increased metabolic activity | significant and reproducible proliferative effects greater than those of Qx-70 and the untreated cells | declined | ≤ 9% | moderate reductions | ≤ 9% | moderate reductions | –
3 | CC(=O)N1CCN(c2cnc3ccccc3n2)CC1 [Qx-296, 2-(4-acetylpiperazine)-quinoxaline] | high proliferative effect and increased metabolic activity | significant and reproducible proliferative effects greater than those of Qx-70 and the untreated cells | declined | ≤ 9% | moderate reductions | ≤ 9% | moderate reductions | –
4 | N.N.[Cl][Pt][Cl] [cisplatin, reference compound] | – | – | – | – | – | – | – | extensive cell death

Source: PMC12731105, “Design and Synthesis of New Quinoxaline Analogs to Regenerate Sensory Auditory Hair Cells” (Cells, 2025)
